Assay results as given in publication PMC3778407, “Topochemical control of the photodimerization of aromatic compounds by γ-cyclodextrin thioethers in aqueous solution” (Beilstein Journal of Organic Chemistry, 2013).
≈ marks a conversion by molar mass, not a printed value. Like-named read-outs stand apart in the source and are kept apart here.

What was measured:
[1] = cited from earlier work
[2] = Aqueous solubility of guests and solubilization by γ-CD thioethers; format: physicochemical; details: read-out: [COU]0 solubility of COU
Experimental: (§1) Because the concentration of the free guest [G]free is determined by two coupled thermodynamic equilibria (Equation 1). The 2-phase solubility equilibrium is expressed by Equation 2 and the equilibrium of complexation by the CD host is formulated in Equation 3. The guest dissolves until the concentration of free guest is equal to the solubility of the guest, [G]0 = [G]free. Consequently, the lower the solubility of the guest in water, the lower the fraction of uncomplexed guests. The lower the concentration of the free guest, the lower the contribution of undesirable and non-specific photodimerization to the total quantum yield, according to Equation 4. Consequently, lowering the aqueous solubility of COU by the addition of salt, taking advantage of the so-called “salting-out effect” [46] appeared to be a plausible way to enhance the reaction selectivity of the syn-HH dimer.
(§2) Photoreaction procedures: Aqueous solutions of the native CDs or γ-CD thioethers (25 mL, 6.0 mM) were added into glass vials containing excess amounts of the guest molecules. To evaluate the salting-out effect on the photo-product distribution of COU, different amounts of sodium sulfate were added to the vials to obtain the desired final salt concentration (Na2SO4 concentration: 0, 0.5, 1.0, and 1.5 M). Sample solutions were thoroughly degassed using sonication. The vials were tightly sealed, protected from light, and magnetically stirred at room temperature. After 72 h, the resulting suspensions were filtered through syringe filters. The concentrations of the reactants in the CD solutions were determined from the UV–vis extinction coefficients at the absorption maxima.

[3] = parameters: method as in PMID 21739610; details: K/10^9 [M^−2]; host/guest 1:2; cited from earlier work
[4] = 1:2 (host/guest) binding constant of COU in γ-CD thioether 2 from solubility measurements
Experimental: as §1
Both effects based on the salt concentration led to a significant reduction in the contribution of the photodimerization of free COU to the total quantum yield Φ in Equation 4. Taking into account the molar fraction of the formation of syn-HH in water [drawing 5] from Table 3 and in the complex [drawing 6] , and assuming the quantum yield for the complex as Φcomplex = 19%, the total molar fraction [drawing 7] was calculated according to Equation 5, which was derived from Equation 4. The concentration of complexed COU, [COU]C, was determined as the increase in the solubility of COU upon the addition of the host. The calculated total quantum yields and molar fractions of the syn-HH isomer, listed in Table 5, are in good agreement with the measured values, listed in Table 4. It also shoes, that the binding constant K, calculated according to the law of mass action for the 1:2 (host/guest) complex, tremendously increases with the salt concentration leading to a strong increase of the complexed portion of COU. In contrast to the previous ANT system, the quantum yield of COU photodimerization increases with the binding const K, because K is much lower for COU than for ANT so that contribution of free COU is not negligible.
as §2, with “The vials were tightly sealed, protected from light, and magnetically stirred at room temperature. After 72 h, the resulting suspensions were filtered through syringe filters.” left out

[5] = parameters: method as in PMID 21739610; details: K/10^6 M^−2; 1:2 host/guest; cited from earlier work

c1ccc2cc3ccccc3cc2c1 [ANT, anthracene]
solubility of free ANT ([1]; water): 0.0004 mM

O=c1ccc2ccccc2o1 [COU, coumarin]
solubility at 72 h ([2]; water with Na2SO4, thermodynamic from solid, [Na2SO4] 0.5 M): 8.5 mM (≈ 1240 µg/mL) | solubility at 72 h ([2]; water with Na2SO4, thermodynamic from solid, [Na2SO4] 1.0 M): 4.7 mM (≈ 687 µg/mL) | solubility at 72 h ([2]; water with Na2SO4, thermodynamic from solid, [Na2SO4] 1.5 M): 2.6 mM (≈ 380 µg/mL) | solubility at 72 h ([2]; water, thermodynamic from solid, [Na2SO4] 0.0 M): 15.2 mM (≈ 2220 µg/mL) | aqueous solubility ([1]; water): 15 mM (≈ 2190 µg/mL)

NCCSC[C@H]1O[C@@H]2O[C@H]3[C@H](O)[C@@H](O)[C@@H](O[C@H]4[C@H](O)[C@@H](O)[C@@H](O[C@H]5[C@H](O)[C@@H](O)[C@@H](O[C@H]6[C@H](O)[C@@H](O)[C@@H](O[C@H]7[C@H](O)[C@@H](O)[C@@H](O[C@H]8[C@H](O)[C@@H](O)[C@@H](O[C@H]9[C@H](O)[C@@H](O)[C@@H](O[C@H]1[C@H](O)[C@H]2O)O[C@@H]9CSCCN)O[C@@H]8CSCCN)O[C@@H]7CSCCN)O[C@@H]6CSCCN)O[C@@H]5CSCCN)O[C@@H]4CSCCN)O[C@@H]3CSCCN [Host 1]
1:2 binding constant K of ANT [3]: 22.8 10^9 M^−2 | highest concentration of ANT achieved, [ANT] ([1]; 6 mM solution of host in water): 0.04 mM

O=C(O)CSC[C@H]1O[C@@H]2O[C@H]3[C@H](O)[C@@H](O)[C@@H](O[C@H]4[C@H](O)[C@@H](O)[C@@H](O[C@H]5[C@H](O)[C@@H](O)[C@@H](O[C@H]6[C@H](O)[C@@H](O)[C@@H](O[C@H]7[C@H](O)[C@@H](O)[C@@H](O[C@H]8[C@H](O)[C@@H](O)[C@@H](O[C@H]9[C@H](O)[C@@H](O)[C@@H](O[C@H]1[C@H](O)[C@H]2O)O[C@@H]9CSCC(=O)O)O[C@@H]8CSCC(=O)O)O[C@@H]7CSCC(=O)O)O[C@@H]6CSCC(=O)O)O[C@@H]5CSCC(=O)O)O[C@@H]4CSCC(=O)O)O[C@@H]3CSCC(=O)O [Host 2]
binding constant K of COU complexed in 2 ([4]; [Na2SO4] 0.0 M, 1:2 host/guest, law of mass action, from solubility measurements): 2 10^3 M^−2 | binding constant K of COU complexed in 2 ([4]; [Na2SO4] 0.5 M): 30 10^3 M^−2 | binding constant K of COU complexed in 2 ([4]; [Na2SO4] 1.0 M): 97 10^3 M^−2 | binding constant K of COU complexed in 2 ([4]; [Na2SO4] 1.5 M): 1000 10^3 M^−2 | 1:2 binding constant K of ANT [3]: 7.7 10^9 M^−2

O=S(=O)(O)CCSC[C@H]1O[C@@H]2O[C@H]3[C@H](O)[C@@H](O)[C@@H](O[C@H]4[C@H](O)[C@@H](O)[C@@H](O[C@H]5[C@H](O)[C@@H](O)[C@@H](O[C@H]6[C@H](O)[C@@H](O)[C@@H](O[C@H]7[C@H](O)[C@@H](O)[C@@H](O[C@H]8[C@H](O)[C@@H](O)[C@@H](O[C@H]9[C@H](O)[C@@H](O)[C@@H](O[C@H]1[C@H](O)[C@H]2O)O[C@@H]9CSCCS(=O)(=O)O)O[C@@H]8CSCCS(=O)(=O)O)O[C@@H]7CSCCS(=O)(=O)O)O[C@@H]6CSCCS(=O)(=O)O)O[C@@H]5CSCCS(=O)(=O)O)O[C@@H]4CSCCS(=O)(=O)O)O[C@@H]3CSCCS(=O)(=O)O [Host 3]
1:2 binding constant K of ANT [3]: 6.8 10^9 M^−2 | binding constant K of ACE [5]: 37 10^6 M^−2

CC(SC[C@H]1O[C@@H]2O[C@H]3[C@H](O)[C@@H](O)[C@@H](O[C@H]4[C@H](O)[C@@H](O)[C@@H](O[C@H]5[C@H](O)[C@@H](O)[C@@H](O[C@H]6[C@H](O)[C@@H](O)[C@@H](O[C@H]7[C@H](O)[C@@H](O)[C@@H](O[C@H]8[C@H](O)[C@@H](O)[C@@H](O[C@H]9[C@H](O)[C@@H](O)[C@@H](O[C@H]1[C@H](O)[C@H]2O)O[C@@H]9CSC(C)C(=O)O)O[C@@H]8CSC(C)C(=O)O)O[C@@H]7CSC(C)C(=O)O)O[C@@H]6CSC(C)C(=O)O)O[C@@H]5CSC(C)C(=O)O)O[C@@H]4CSC(C)C(=O)O)O[C@@H]3CSC(C)C(=O)O)C(=O)O (some centres unmarked) [Host 4]
1:2 binding constant K of ANT [3]: 3.4 10^9 M^−2

OCC(O)CSC[C@H]1O[C@@H]2O[C@H]3[C@H](O)[C@@H](O)[C@@H](O[C@H]4[C@H](O)[C@@H](O)[C@@H](O[C@H]5[C@H](O)[C@@H](O)[C@@H](O[C@H]6[C@H](O)[C@@H](O)[C@@H](O[C@H]7[C@H](O)[C@@H](O)[C@@H](O[C@H]8[C@H](O)[C@@H](O)[C@@H](O[C@H]9[C@H](O)[C@@H](O)[C@@H](O[C@H]1[C@H](O)[C@H]2O)O[C@@H]9CSCC(O)CO)O[C@@H]8CSCC(O)CO)O[C@@H]7CSCC(O)CO)O[C@@H]6CSCC(O)CO)O[C@@H]5CSCC(O)CO)O[C@@H]4CSCC(O)CO)O[C@@H]3CSCC(O)CO (some centres unmarked) [Host 5]
1:2 binding constant K of ANT [3]: 3.7 10^9 M^−2

O=C(O)CCSC[C@H]1O[C@@H]2O[C@H]3[C@H](O)[C@@H](O)[C@@H](O[C@H]4[C@H](O)[C@@H](O)[C@@H](O[C@H]5[C@H](O)[C@@H](O)[C@@H](O[C@H]6[C@H](O)[C@@H](O)[C@@H](O[C@H]7[C@H](O)[C@@H](O)[C@@H](O[C@H]8[C@H](O)[C@@H](O)[C@@H](O[C@H]9[C@H](O)[C@@H](O)[C@@H](O[C@H]1[C@H](O)[C@H]2O)O[C@@H]9CSCCC(=O)O)O[C@@H]8CSCCC(=O)O)O[C@@H]7CSCCC(=O)O)O[C@@H]6CSCCC(=O)O)O[C@@H]5CSCCC(=O)O)O[C@@H]4CSCCC(=O)O)O[C@@H]3CSCCC(=O)O [Host 6]
1:2 binding constant K of ANT [3]: 6.5 10^9 M^−2 | binding constant K of ACE [5]: 27 10^6 M^−2

COCCOCCOCCSC[C@H]1O[C@@H]2O[C@H]3[C@H](O)[C@@H](O)[C@@H](O[C@H]4[C@H](O)[C@@H](O)[C@@H](O[C@H]5[C@H](O)[C@@H](O)[C@@H](O[C@H]6[C@H](O)[C@@H](O)[C@@H](O[C@H]7[C@H](O)[C@@H](O)[C@@H](O[C@H]8[C@H](O)[C@@H](O)[C@@H](O[C@H]9[C@H](O)[C@@H](O)[C@@H](O[C@H]1[C@H](O)[C@H]2O)O[C@@H]9CSCCOCCOCCOC)O[C@@H]8CSCCOCCOCCOC)O[C@@H]7CSCCOCCOCCOC)O[C@@H]6CSCCOCCOCCOC)O[C@@H]5CSCCOCCOCCOC)O[C@@H]4CSCCOCCOCCOC)O[C@@H]3CSCCOCCOCCOC [Host 7]
1:2 binding constant K of ANT [3]: 7.7 10^9 M^−2
